According to the CheMixHub viscosity set:
Values joined by “and” are separate entries in the source; they are usually repeats but may differ in a detail not shown here. Equal values may be shown once.

Assay: xn = mol fraction of the nth substance listed

C1COCCO1 + O
Conditions | viscosity
293.15 K, 101.3 kPa, x2 = 0.0459 | 1.306 mPa·s
293.15 K, 101.3 kPa, x2 = 0.09407 | 1.32 mPa·s
293.15 K, 101.3 kPa, x2 = 0.2053 | 1.399 mPa·s and 1.4 mPa·s
293.15 K, 101.3 kPa, x2 = 0.3758 | 1.621 mPa·s and 1.619 mPa·s
293.15 K, 101.3 kPa, x2 = 0.5701 | 1.982 mPa·s and 1.981 mPa·s
293.15 K, 101.3 kPa, x2 = 0.7952 | 2.264 mPa·s and 2.263 mPa·s
293.15 K, 101.3 kPa, x2 = 0.8661 | 2.06 mPa·s
293.15 K, 101.3 kPa, x2 = 0.9391 | 1.577 mPa·s and 1.576 mPa·s
293.15 K, 101.3 kPa, x2 = 0.9742 | 1.258 mPa·s and 1.259 mPa·s
293.15 K, 101.33 kPa, x1 = 0.0222 | 1.221 mPa·s
293.15 K, 101.33 kPa, x1 = 0.0486 | 1.464 mPa·s
293.15 K, 101.33 kPa, x1 = 0.0806 | 1.728 mPa·s
293.15 K, 101.33 kPa, x1 = 0.12 | 1.984 mPa·s
293.15 K, 101.33 kPa, x1 = 0.143 | 2.092 mPa·s
293.15 K, 101.33 kPa, x1 = 0.17 | 2.183 mPa·s
293.15 K, 101.33 kPa, x1 = 0.2 | 2.246 mPa·s
293.15 K, 101.33 kPa, x1 = 0.235 | 2.268 mPa·s
293.15 K, 101.33 kPa, x1 = 0.25 | 2.266 mPa·s
293.15 K, 101.33 kPa, x1 = 0.275 | 2.252 mPa·s
293.15 K, 101.33 kPa, x1 = 0.323 | 2.185 mPa·s
293.15 K, 101.33 kPa, x1 = 0.334 | 2.151 mPa·s
293.15 K, 101.33 kPa, x1 = 0.38 | 2.072 mPa·s
293.15 K, 101.33 kPa, x1 = 0.45 | 1.927 mPa·s
293.15 K, 101.33 kPa, x1 = 0.5 | 1.817 mPa·s
293.15 K, 101.33 kPa, x1 = 0.537 | 1.758 mPa·s
293.15 K, 101.33 kPa, x1 = 0.648 | 1.569 mPa·s
293.15 K, 101.33 kPa, x1 = 0.716 | 1.478 mPa·s
293.15 K, 101.33 kPa, x1 = 0.795 | 1.396 mPa·s
293.15 K, 101.33 kPa, x1 = 0.846 | 1.349 mPa·s
293.15 K, 101.33 kPa, x1 = 0.918 | 1.312 mPa·s
298 K, 101 kPa, x2 = 0.5236 | 1.647 mPa·s
298 K, 101 kPa, x2 = 0.6752 | 1.886 mPa·s
298 K, 101 kPa, x2 = 0.7636 | 1.965 mPa·s
298 K, 101 kPa, x2 = 0.88 | 1.701 mPa·s
298 K, 101 kPa, x2 = 0.9514 | 1.271 mPa·s
298.15 K, 101 kPa, x1 = 0.141 | 1.784 mPa·s
298.15 K, 101 kPa, x1 = 0.271 | 1.923 mPa·s
298.15 K, 101.3 kPa, x2 = 0.0459 | 1.196 mPa·s
298.15 K, 101.3 kPa, x2 = 0.09407 | 1.207 mPa·s
298.15 K, 101.3 kPa, x2 = 0.2053 | 1.275 mPa·s and 1.274 mPa·s
298.15 K, 101.3 kPa, x2 = 0.3758 | 1.458 mPa·s
298.15 K, 101.3 kPa, x2 = 0.5701 | 1.761 mPa·s
298.15 K, 101.3 kPa, x2 = 0.7952 | 1.976 mPa·s and 1.975 mPa·s
298.15 K, 101.3 kPa, x2 = 0.8661 | 1.796 mPa·s
298.15 K, 101.3 kPa, x2 = 0.9391 | 1.38 mPa·s and 1.381 mPa·s
298.15 K, 101.3 kPa, x2 = 0.9742 | 1.109 mPa·s and 1.108 mPa·s
298.15 K, 101.33 kPa, x1 = 0.0222 | 1.076 mPa·s
298.15 K, 101.33 kPa, x1 = 0.0486 | 1.283 mPa·s
298.15 K, 101.33 kPa, x1 = 0.0806 | 1.508 mPa·s
298.15 K, 101.33 kPa, x1 = 0.12 | 1.728 mPa·s
298.15 K, 101.33 kPa, x1 = 0.143 | 1.822 mPa·s
298.15 K, 101.33 kPa, x1 = 0.17 | 1.901 mPa·s
298.15 K, 101.33 kPa, x1 = 0.2 | 1.957 mPa·s
298.15 K, 101.33 kPa, x1 = 0.235 | 1.98 mPa·s
298.15 K, 101.33 kPa, x1 = 0.25 | 1.983 mPa·s
298.15 K, 101.33 kPa, x1 = 0.275 | 1.96 mPa·s
298.15 K, 101.33 kPa, x1 = 0.323 | 1.917 mPa·s
298.15 K, 101.33 kPa, x1 = 0.334 | 1.894 mPa·s
298.15 K, 101.33 kPa, x1 = 0.38 | 1.831 mPa·s
298.15 K, 101.33 kPa, x1 = 0.45 | 1.715 mPa·s
298.15 K, 101.33 kPa, x1 = 0.5 | 1.623 mPa·s
298.15 K, 101.33 kPa, x1 = 0.537 | 1.572 mPa·s
298.15 K, 101.33 kPa, x1 = 0.648 | 1.414 mPa·s
298.15 K, 101.33 kPa, x1 = 0.716 | 1.336 mPa·s
298.15 K, 101.33 kPa, x1 = 0.795 | 1.274 mPa·s
298.15 K, 101.33 kPa, x1 = 0.846 | 1.23 mPa·s
298.15 K, 101.33 kPa, x1 = 0.918 | 1.2 mPa·s
298.15 K, 101.33 kPa, x2 = 0.1129 | 1.222 mPa·s
298.15 K, 101.33 kPa, x2 = 0.21 | 1.291 mPa·s
298.15 K, 101.33 kPa, x2 = 0.3108 | 1.384 mPa·s
298.15 K, 101.33 kPa, x2 = 0.4096 | 1.51 mPa·s
298.15 K, 101.33 kPa, x2 = 0.4986 | 1.629 mPa·s
298.15 K, 101.33 kPa, x2 = 0.6059 | 1.797 mPa·s
298.15 K, 101.33 kPa, x2 = 0.6983 | 1.913 mPa·s
298.15 K, 101.33 kPa, x2 = 0.8288 | 1.857 mPa·s
298.15 K, 101.33 kPa, x2 = 0.9021 | 1.57 mPa·s
303.1 K, 101 kPa, x2 = 0.228 | 1.147 mPa·s
303.1 K, 101 kPa, x2 = 0.2741 | 1.174 mPa·s
303.1 K, 101 kPa, x2 = 0.4187 | 1.261 mPa·s
303.1 K, 101 kPa, x2 = 0.7038 | 1.709 mPa·s
303.1 K, 101 kPa, x2 = 0.8099 | 1.733 mPa·s
303.1 K, 101 kPa, x2 = 0.8346 | 1.661 mPa·s
303.1 K, 101 kPa, x2 = 0.8791 | 1.543 mPa·s
303.1 K, 101 kPa, x2 = 0.9194 | 1.35 mPa·s
303.1 K, 101 kPa, x2 = 0.9508 | 1.162 mPa·s
303.1 K, 101 kPa, x2 = 0.9786 | 0.968 mPa·s
303.15 K, 101.3 kPa, x2 = 0.0459 | 1.098 mPa·s
303.15 K, 101.3 kPa, x2 = 0.09407 | 1.108 mPa·s and 1.107 mPa·s
